Experimental data published in ChEMBL document CHEMBL1240319, “New approaches to molecular cancer therapeutics” (Nat Chem Biol, 2006).

Assay: Inhibition of HSP90

| IC50 [µM] | SMILES |
| --- | --- |
| 0.025 | CCNC(=O)c1n[nH]c(-c2cc(Cl)c(O)cc2O)c1-c1ccc(OC)cc1 |
| 9 | CCc1cc(-c2[nH]nc(C)c2-c2ccc3c(c2)OCCO3)c(O)cc1O |
